# Results taken from patent US7262009B2, “Method of cell detection” (Matforsk; Norwegian Food Research Institute, priority 2000, dated 2007).
# Assays:
# E. coil 0157 strain 765 = assay: Viable/dead study with EMA, TaqMan PCR; assay type: cell-based, E. coli; conditions: for PCR cycle difference: 100 ng/μl EMA for 5 min
# Experimental: (§1) Amplification reactions (50 μl) contained a DNA sample (1-5 μl), 1× TaqMan™ Buffer A, […], 200 μM dATP, dCTP, dGTP, and 400 μM dUTP, 0.1 μM E. coli specific probe, 0.3 μM E. coli specific primers (each), and 2.5 U AmpliTaq GoldT™ DNA polymerase. PCR samples and controls were prepared in triplicates. Reaction tubes were MicroAmp® Optical tubes and tube caps were MicroAmp® Optical caps. All consumables were supplied by PE Biosystems, Foster City, Calif., USA. Before amplification, the PCR mixture was heated to 95° C. for 10 mins to denature the template DNA. Amplification profile: 40 cycles of 95° C. for 20 seconds and 60° C. for one minute. Reactions were performed in the ABI prism® 7700 Sequence Detection System (PE Biosysrems, Foster City, Calif., USA).
# (§2) The amplification was plotted as ΔRn, which was the normalized reporter signal (reporter signal minus background), against number of cycles. One then chose a threshold signal, which intersected the amplification curves in the linear region of the semi-log plot. This gave threshold cycles (CT), which is detined as the PCR cycle where an increase in fluorescence first occurred, for each amplification plot. Different amplification could then be compared by their respective threshold cycles.
# (§3) The light activation was done on ice with a OSRAM SLG1000 lamp (OSRAM, Norway) with a 650 W halogen light bulb at a distance of 10 cm.
# The strain was killed with 70% isopropyl ethanol for. 30 min. 10 ng/μl and 100 ng/μl EMA were added both to the viable control, and to the killed bacteria. The bacteria were exposed to EMA for 30, 1 min, 5 min, 10 min and 15 min. Exposure to 100 ng/μl for 5 min give the best discrimination with approximately 1 cycle difference for the viable bacteria, and 10 cycles (½^10) for the killed bacteria. […] For treated, i.e. dead bacteria, CT was at 20 PCR cycles for bacteria not exposed to EMA but at 30 for bacteria exposed to EMA.
# purified DNA = assay: Time series for covalent binding of EMA to DNA, real time quantitative PCR; assay type: biochemical
# Experimental: as §1, §2, §3
# EMA in concentrations 2 ng/μl, 20 ng/μl and 100 ng/μl were added to purified DNA, and exposed to light for 5 s, 15 s, 45 s, 1 min and 3 min. The amount of DNA that could serve as a template was then tested by real time quantitative PCR.
# DNA = assay: Time to light inactivation of EMA, real time quantitative PCR; assay type: biochemical; conditions: EMA exposed to light for 30 s or more prior to binding to DNA; 2, 20, 100 ng/μl
# Experimental: as §1, §2
# The light activation was done on ice with a OSRAM SLG1000 lamp (OSRAM, Norway) with a 650 W halogen light bulb at a distance of 10 cm. […]
# 16S rDNA gene (pure DNA) = assay: PCR inhibitory effect of photoactivated and unactivated EMA on pure DNA (16S rDNA PCR, agarose gel); assay type: biochemical
# Experimental: The PCR inhibitory effects of both photoactivated, and unactivated EMA were investigated for pure DNA. PCR amplifications were carried out on dilution series of 1000, 100 and 10 μg/ml EMA. The 16S rDNA gene was amplified through the application of the forward primer 5′[…]3′ and the reverse primer 5′[…]3′. These primer sites are universally conserved for eubacterial 16S rDNA.
# The PCR amplifications were done using the GeneAmp 9700 PCR amplification system (PE biosystems, Norwalk, Conn., USA). The 50 μl PCR reactions contained 10 pmol of each primer, 200 μM dNTP, 10 mM Tris-HCl (pH 8.8), 1.5 mM MgCl2, 50 mM KCl, 0.1% Triton® x-100, 1 U DynaZyme™ Thermostable DNA Polymerase (Finnzymes OY, Espoo, Finland) and 2 ng template. The cycling parameters were: 94° C. for 30 s, 55° C. for 30 s and 72° C. for 1 minute.
# The cycling step was repeated 25 times. The samples were heated to 94° C. for 5 minutes prior to the amplification, and an extension step at 72° C. for 7 minutes was included after completion of the amplification reactions.
# For each dilution series PCR was employed both on samples where EMA had been covalently photoactivated to DNA through illumination with a Luxor 18W type FL-185 lamp (Luxor ASA, Oslo, Norway) at 5 cm for 15 minutes, and on samples where EMA had been added to the DNA in the dark. […] For 100 and 10 μg/ml, the photoactivated EMA inhibited PCR, while PCR for the unactivated EMA was not inhibited (FIG. 1). 10 μg/ml amplification products were separated on a 1% agarose gel for 45 minutes at 100 volts. The conclusion from these experiments is that EMA covalently bound to DNA is sufficient to inhibit PCR amplification, and that EMA by itself is only inhibitory to PCR at high concentrations.
# E. coli = assay: EMA as living/dead stain: PCR signal from living and killed E. coli; assay type: cell-based; conditions: for difference in PCR signal intensities between the treated sample and the control: light 10 minutes
# Experimental: Panel B: The signal intensities were determined as pixel values in an 8 bit grayscale by using the program Gel-Pro ANALYZER software (Medica Cybernetics, Silver Spring. Md.). The relative signal intensities for the EMA treated samples are given as a percentage of the untreated samples.
# E. coli was killed by ethanol, heat, and formaldehyde to test the effect of EMA as a living/dead stain. In these experiments aliquots of approximately 10^8 cells of E. coli were pelleted in a microcentrifuge at 8000 rpm for 5 minutes, the supernant removed, and the cells resuspended in 50 μl of the respective liquids; water 96% ethanol, and 2% formaldehyde. The ethanol and formaldehyde treated samples were incubated at room temperature, while the water samples were incubated both at room temperature and at 95° C. All samples were incubated at the respective temperatures for 5 minutes.
# The bacteria were subsequently pelleted by centrifugation, the supernatant removed, and the cells resuspended in 50 μl water. […]
# All the samples were exposed to light for 10 minutes. Subsequently, the samples were resuspended in 500 μl […] (GTC) and 1% sarkosyl containing 1U Dynabeads DNA DIRECT beads (Dynal AS, Oslo, Norway). Incubation was continued at room temperature for an additional 5 minutes. 1 ml 96% ethanol was added, and after 5 minutes the samples were washed twice with 1 ml 70% ethanol. The bead and DNA complex was then resuspended in 50 μl water, and finally heated to 65° C. for 10 minutes to remove residual ethanol. 2% of the purified DNA was used in each amplification reaction as described above.
# [1] = tested on: Campylobacter jejuni type strain DSMZ 4688; assay: Effect of externally added DNase on DNA in heat-treated cells, 5'-nuclease PCR; assay type: cell-based; conditions: for reduction of the signal compared to control without DNase: 10 U DNase
# Experimental: The effect on the DNA stability at room temperature after heat-treatment of the cultures, and after addition of DNase was investigated. 1.7±0.8×10^7 cells (with DNase) and 5.0±0.6×10^7 cells (without DNase) of C. jejuni type strain were used in these experiments. […] One set of tubes were then incubated further at room temperature, and samples for PCR analysis removed at intervals of 5, 15, and 30 min, 1 h, 6 and 24 hrs, and 5 days. 10 U RQl DNase (Promega, Madison, Wis., USA) and 1× DNase buffer were added to another set of tubes before the incubation at room temperature. Aliquots were analyzed after 5, 15 and 30 min, and after 1 hr, 6 and 24 hours. For the PCR analysis, DNA was purified from 10 μl aliquots from the respective time-points, and the subsequent 5′-nuclease PCR assay performed as described below.
# Dynabeads® DNA Direct I (Dynal AS, Oslo, Norway), 200 μl, were then added to the suspension of bacteria, and the bacteria-bead suspension was incubated at 65° C. for 20 minutes, followed by incubation at room temperature for another 2 minutes. DNA bound to magnetic beads was then drawn to the wall of the microcentrifuge tube by a magnet (MPC®-E, Dynal AS, Oslo, Norway) for 2 minutes. The supernatant containing salts, detergent and cell debris was carefully removed without disrupting the Dynabeads/DNA complex. The beads were washed twice with a washing buffer (buffer 2 from the kit). Finally, the DNA was removed from the beads by resuspending in 40 μl 10 mM Tris HCl, pH 8.0 (buffer 3 from the kit), and incubation at 65° C. for 5 minutes. The beads, now released from the DNA, were collected with the magnet, and the DNA-containing supernatant was transferred to a fresh tube and used directly in the PCR.
# (§4) Amplification reactions (50 μl) contained a DNA sample (1 μl), 1× TaqMan™ Buffer A, 5 mM MgCl2, 200 μM dATP, dCTP, dGTP, and 400 μM dUTF, 0.02 μM. C. Jejuni specific probe, 0.3 μM C. jejuni specific primers—see Table 1 below (each), 1 U AmpErase™ Uracil N-glycosylase (UNG), and 2.5 U AmpliTaq Gold™ DNA polymerase.
# (§5) Before amplification, the PCR mixture was heated to 50° C. in 5 min to let the UNG destroy possibly contaminating PCR products, and 95° C. for 10 min to denature the template DNA. Amplification, profile: 40 cycles of 95° C. for 20 seconds and 60° C. for one minute. Reactions were performed in the ABI Prism® 7700 Sequence Detection System (PE Biosystems, Foster City, Calif., USA). Reaction conditions were programmed and data were analyzed on a power Macintosh 4400/20 (Apple Computer, Santa Clara, Calif., USA) linked directly to the ABE prism® 7700 Sequence Detection system using the SDS 1.6.3 application software (PE Biosystems, Foster City, Calif., USA) as described by the manufacturer.
# The amplification was plotted as ΔRn, which was the normalized reporter signal (reporter signal minus background), against number of cycles. […] This gave threshold cycles (CT), which is defined as the PCR cycle where an increase in fluorescence first occurred, for each amplification plot. […] The CT-values were plotted against log input DNA/cells and gave standard curves for quantification of unknown samples and possibilities to estimate the amplification efficiency in the reaction (Heid, C. A., J. Stevens, K. J. Livak and P. M. Williams, 1996, Real time quantitative PCR, Genome Research 6: 986-994; PE Biosystems, 1997, User bulletin 2; ABI PRISM 7700 Sequence Detection System). […]
# [2] = tested on: purified DNA from C. jejuni; assay: DNase treatment of purified DNA, 5'-nuclease PCR; assay type: biochemical; conditions: after 30 minutes of DNase treatment
# Experimental: as §4, §5
# The amplification was plotted as ΔRn, which was the normalized reporter signal (reporter signal minus background), against number of cycles. […] This gave threshold cycles (CT), which is defined as the PCR cycle where an increase in fluorescence first occurred, for each amplification plot. […]
compound,measurement,setting,value
"CC[n+]1c(-c2ccccc2)c2cc(N=[N+]=[N-])ccc2c2ccc(N)cc21.[Br-] [EMA, ethidium bromide monoazide]",PCR cycle difference,E. coil 0157 strain 765; killed bacteria (70% isopropyl ethanol 30 min),~10 cycles
same,CT,"E. coil 0157 strain 765; treated, i.e. dead bacteria exposed to EMA",30 PCR cycles
same,CT,"E. coil 0157 strain 765; untreated, i.e. viable bacteria exposed to EMA",21 cycles
same,PCR cycle difference,E. coil 0157 strain 765; viable bacteria,approximately 1 cycle
same,difference in the PCR cycles (ΔCT) until a detectable signal,"purified DNA; EMA 2, 20 and 100 ng/μl (all concentrations tested), after light exposure",approximately 12
same,time at which the binding reaction was complete,"purified DNA; light exposure, EMA 2-100 ng/μl",about 30 s
same,fraction of DNA that could serve as a PCR template after covalent binding of EMA,"purified DNA; ½^12, from ΔCT","0,000244"
same,difference between the control and the test sample,DNA,no significant difference
same,PCR inhibition,"16S rDNA gene (pure DNA); non activated EMA (added in the dark), 1000 μg/ml",inhibited the PCR reaction
same,PCR inhibition,"16S rDNA gene (pure DNA); photoactivated EMA, 10 μg/ml",inhibited PCR
same,PCR inhibition,"16S rDNA gene (pure DNA); photoactivated EMA, 100 μg/ml",inhibited PCR
same,PCR inhibition,"16S rDNA gene (pure DNA); photoactivated EMA, 1000 μg/ml",inhibited the PCR reaction
same,PCR inhibition,"16S rDNA gene (pure DNA); unactivated EMA, 10 μg/ml",not inhibited
same,PCR inhibition,"16S rDNA gene (pure DNA); unactivated EMA, 100 μg/ml",not inhibited
same,amplification efficiency for the living bacteria,E. coli; EMA 100 μg/ml,reduced the amplification efficiency
same,discrimination between the viable and dead bacteria,E. coli; EMA increased to 100 μg/ml,did not result in a better discrimination
same,difference in PCR signal intensities between the treated sample and the control,"E. coli; bacteria killed by heat (95° C.), EMA 10 μg/ml",about 100%
same,difference in PCR signal intensities between the treated sample and the control,"E. coli; bacteria killed with ethanol, EMA 10 μg/ml",about 100%
same,PCR inhibition,E. coli; ethanol killed bacteria (double-stranded DNA),100%
same,difference in PCR signal intensities between the treated sample and the control,"E. coli; formaldehyde treated sample, EMA 10 μg/ml",85%
same,PCR inhibition,E. coli; heat killed bacteria (single-stranded DNA),100%
same,difference in PCR signal intensities between the controls and the EMA sample,"E. coli; living bacteria, EMA 10 μg/ml",no differences
DNase,reduction of the signal compared to control without DNase,[1]; cells heated at 72° C. for 5 min,1 log
same,reduction of the signal compared to control without DNase,[1]; cells heated at 100° C. for 5 min,1 log
same,reduction of the signal compared to control without DNase,[1]; cells heated at 121° C. for 15 min,1 log
same,difference between the DNase treated samples and the control,[1]; cells incubated at 20° C.,little difference
same,difference between the DNase treated samples and the control,[1]; cells incubated at 55° C.,little difference
same,input material (DNA) left,[2],about 0.01%
